Reference: patent US11667602B2, “Compounds and their use” (AstraZeneca AB, priority 2020, dated 2023)
Converted amounts (≈) assume the structure as drawn. Read-outs that look alike come from different tables or passages of the source.

How the values were obtained:
Solubility (Test F) = type: physicochemical; settings: arithmetic mean if run multiple times
Protocol: The assay was conducted according to the Solubility Assay described in pages 164-167 of Wernevik, J. et al., “A Fully Integrated Assay Panel for Early Drug Metabolism and Pharmacokinetics Profiling”, Assay and Drug Development Technologies, 2020, 18(4), 157-179. Data are reported in Table 36 as solubility ([…]. Where the assay was run multiple times for the same compound, the arithmetic mean is reported.

human RXFP1 = target: T1, human RXFP1 (Homo sapiens, UniProt Q9HBX9); assay: RXFP1 Hu cAMP (Test A); type: cell-based; parameters: expressed in transfected cells; host or cells: Jump-In T-REx CHO-K1 cells (ThermoFisher), induced with 10 ng/ml doxycycline for 24 h
T1 sequence (Q9HBX9 1-757): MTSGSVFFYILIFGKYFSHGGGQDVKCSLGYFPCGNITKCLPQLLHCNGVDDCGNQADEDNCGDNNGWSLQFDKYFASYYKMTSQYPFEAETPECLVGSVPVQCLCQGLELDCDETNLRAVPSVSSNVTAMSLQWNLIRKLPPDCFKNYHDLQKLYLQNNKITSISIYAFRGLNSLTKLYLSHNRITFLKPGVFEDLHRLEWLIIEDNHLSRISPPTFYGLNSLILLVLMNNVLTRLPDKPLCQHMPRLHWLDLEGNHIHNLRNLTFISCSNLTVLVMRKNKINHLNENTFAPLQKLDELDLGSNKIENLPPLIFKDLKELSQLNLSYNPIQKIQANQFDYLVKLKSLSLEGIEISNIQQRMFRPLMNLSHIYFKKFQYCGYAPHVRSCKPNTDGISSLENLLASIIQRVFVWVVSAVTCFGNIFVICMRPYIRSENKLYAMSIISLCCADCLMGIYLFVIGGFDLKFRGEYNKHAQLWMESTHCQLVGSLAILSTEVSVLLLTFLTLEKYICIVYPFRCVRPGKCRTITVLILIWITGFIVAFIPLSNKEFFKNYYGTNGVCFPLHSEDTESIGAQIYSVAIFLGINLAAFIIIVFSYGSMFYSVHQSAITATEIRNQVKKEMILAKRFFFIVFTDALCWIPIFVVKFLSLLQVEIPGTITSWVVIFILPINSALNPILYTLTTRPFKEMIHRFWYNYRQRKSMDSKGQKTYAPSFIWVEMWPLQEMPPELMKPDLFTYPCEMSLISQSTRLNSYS
Procedure, shortened: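 Read-out is HTRF signal, inversely proportional to cAMP, converted to cAMP amount by standard curve. Stimulation occurred in inducible CHO-K1 cells expressing the human receptor with phosphodiesterases blocked by 0.5 mM IBMX.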

[1] = Human Liver Microsomal Stability (Test C); type: in vitro ADME
Procedure, shortened: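 Human liver microsome incubation per the Wernevik et al. integrated DMPK panel protocol. Intrinsic clearance reported as CLint in μl/min/mg protein, averaged arithmetically over repeat runs.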

[2] = Rat Hepatocyte Stability (Test E); type: in vitro ADME; settings: geometric mean if run multiple times
Procedure, shortened: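 Run per the published AstraZeneca-type rat hepatocyte stability protocol (Wernevik et al. panel). Values are mean intrinsic clearance, Clint in μl/min/10^6 cells; geometric mean used for repeated runs.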

[3] = Human Plasma Protein Binding (Test B); type: in vitro ADME; settings: fraction unbound (fu)
Procedure, shortened: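 Human plasma protein binding run per the published Wernevik et al. (2020) integrated DMPK panel protocol. Values are fraction unbound (fu, % free); repeat runs averaged arithmetically.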

[4] = RXFP1 Hu cAMP, read-out: Test A EC50

Compound | solubility (Solubility (Test F)) [µM] | EC50 (human RXFP1; [4]) [nM] | microsomal CLint ([1]; human, liver microsomes) [µL/min/mg] | hepatocyte CLint ([2]; rat, hepatocytes) [µL/min/1e6 cells] | Test B Human Plasma Protein Binding (% free) [3] [% free] | Test A Sinf (human RXFP1; RXFP1 Hu cAMP) [%] | EC50 (human RXFP1; Test A EC50, RXFP1 Hu cAMP) [nM] | microsomal CLint ([1]; human liver microsomes) [µL/min/mg] | hepatocyte CLint ([2]; rat hepatocytes) [µL/min/1e6 cells]
COc1cc(F)c(O[C@H]2CC[C@@H](C(=O)O)CC2)cc1C(=O)N[C@@H]1[C@H]2CC[C@H](C2)[C@@H]1C(=O)Nc1cccc(OC(F)F)c1 [Example 195] | 860 (≈ 508 µg/mL) | 830 | 28 | 130 | 1.6 | 131 | – | – | –
COc1cc(F)c(O[C@H]2CC[C@@H](C(=O)O)CC2)cc1C(=O)N[C@@H]1[C@H]2CC[C@H](C2)[C@@H]1C(=O)Nc1cccc(OC(F)(F)F)c1F [Example 18] | 400 (≈ 251 µg/mL) | – | 27 | 49 | 1.2 | 105 | – | – | –
COc1cc(F)c(O[C@H]2CC[C@@](C)(C(=O)O)CC2)cc1C(=O)N[C@@H]1[C@H]2CC[C@H](C2)[C@@H]1C(=O)NCC1(C)CC1 [Example 41] | 820 (≈ 435 µg/mL) | > 5500 | 8.9 | 21 | 8 | 114 | – | – | –
COc1cc(F)c(O[C@H]2CC[C@@H](C(=O)O)CC2)cc1C(=O)N[C@@H]1[C@H]2CC[C@H](C2)[C@@H]1C(=O)Nc1ccc(C#N)c(C(F)(F)F)c1 [Example 28] | 690 (≈ 426 µg/mL) | – | – | – | 0.94 | 96 | 44 | 32 | 51
COc1cc(C#N)c(O[C@H]2CC[C@@](C)(C(=O)O)CC2)cc1C(=O)N[C@@H]1[C@H]2CC[C@H](C2)[C@@H]1C(=O)NCC1CC(C)(C)C1 [Example 87] | 690 (≈ 390 µg/mL) | 110 | 20 | 24 | 6.7 | 109 | – | – | –
COc1cc(F)c(O[C@H]2CC[C@@H](C(=O)O)CC2)cc1C(=O)N[C@@H]1[C@H]2CC[C@H](C2)[C@@H]1C(=O)Nc1nccc(C(F)(F)F)n1 [Example 32] | > 1000 | > 40000 | 10 | 26 | 13 | 100 | – | – | –
COc1cc(F)c(-c2ccc([C@@H]3C[C@H]3C(=O)O)nc2)cc1C(=O)N[C@@H]1[C@H]2CC[C@H](C2)[C@@H]1C(=O)Nc1cccc(S(=O)(=O)C(F)(F)F)c1 (single isomer, unassigned) [Example 261, (1R*,2R*)-2-(5-(2-Fluoro-4-methoxy-5-(((1S,2R,3S,4R)-3-((3-((trifluoromethyl)sulfonyl)phenyl)carbamoyl)bicyclo[2.2.1]heptan-2-yl)carbamoyl)phenyl)pyridin-2-yl)cyclopropane-1-carboxylic acid] | > 1000 | 130 | 57 | 84 | 0.89 | 107 | – | – | –

Now from value to molecule, other results behind:

solubility (Solubility (Test F)) [µM] | EC50 (human RXFP1; [4]) [nM] | microsomal CLint ([1]; human, liver microsomes) [µL/min/mg] | hepatocyte CLint ([2]; rat, hepatocytes) [µL/min/1e6 cells] | Test B Human Plasma Protein Binding (% free) [3] [% free] | Test A Sinf (human RXFP1; RXFP1 Hu cAMP) [%] | Compound | EC50 (human RXFP1; Test A EC50, RXFP1 Hu cAMP) [nM] | microsomal CLint ([1]; human liver microsomes) [µL/min/mg] | hepatocyte CLint ([2]; rat hepatocytes) [µL/min/1e6 cells]
780 (≈ 426 µg/mL) | > 5000 | < 3 | 17 | 50 | – | COc1cc(C#N)c(O[C@H]2CC[C@@](C)(C(=O)O)CC2)cc1C(=O)N[C@@H]1[C@H]2CC[C@H](C2)[C@@H]1C(=O)NC[C@H](F)CO [Example 89] | – | – | –
> 1000 | 19 | 37 | 47 | 3.7 | 99 | COc1cc(C#N)c(O[C@H]2CC[C@@H](C(=O)O)CC2)cc1C(=O)N[C@@H]1[C@H]2CC[C@H](C2)[C@@H]1C(=O)Nc1cccc(S(=O)(=O)C(F)(F)F)c1 [Example 467, (1S,4s)-4-(2-Cyano-4-methoxy-5-(((1S,2R,3S,4R)-3-((3-((trifluoromethyl)sulfonyl)phenyl)carbamoyl)bicyclo[2.2.1]heptan-2-yl)carbamoyl)phenoxy)cyclohexane-1-carboxylic acid] | – | – | –
> 1000 | – | 36 | > 300 | 3.3 | 104 | COc1cc(F)c(O[C@H]2CC[C@@H](C(=O)O)CC2)cc1C(=O)N[C@@H]1[C@H]2CC[C@H](C2)[C@@H]1C(=O)Nc1cccc(CF)c1 [Example 11, (1S,4s)-4-(2-Fluoro-5-(((1S,2R,3S,4R)-3-((3-(fluoromethyl)phenyl)carbamoyl)bicyclo[2.2.1]heptan-2-yl)carbamoyl)-4-methoxyphenoxy)cyclohexane-1-carboxylic acid] | – | – | –
630 (≈ 355 µg/mL) | 470 | 17 | 93 | 2.3 | 97 | COc1cc(F)c(O[C@H]2CC[C@@H](C(=O)O)CC2)cc1C(=O)N[C@@H]1[C@H]2CC[C@H](C2)[C@@H]1C(=O)Nc1ccc(C)c(C#N)c1 [Example 19] | – | – | –
520 (≈ 309 µg/mL) | 6300 | 24 | 10 | 3.1 | 115 | COc1cc(F)c(O[C@H]2CC[C@@H](C(=O)O)CC2)cc1C(=O)N[C@@H]1[C@H]2CC[C@H](C2)[C@@H]1C(=O)Nc1ccc(C(F)(F)F)cn1 [Example 13, (1S,4s)-4-(2-Fluoro-4-methoxy-5-(((1S,2R,3S,4R)-3-((5-(trifluoromethyl)pyridin-2-yl)carbamoyl)bicyclo[2.2.1]heptan-2-yl)carbamoyl)phenoxy)cyclohexane-1-carboxylic acid] | – | – | –
200 (≈ 130 µg/mL) | 19 | 34 | 35 | 0.45 | 107 | COc1cc(F)c(O[C@H]2CC[C@@H](C(=O)O)CC2)cc1C(=O)N[C@@H]1[C@H]2CC[C@H](C2)[C@@H]1C(=O)Nc1cccc(S(F)(F)(F)(F)F)c1 [Example 182] | – | – | –
1000 (≈ 591 µg/mL) | 8300 | 7.9 | 34 | 26 | 112 | COc1cc(C#N)c(O[C@H]2CC[C@@](C)(C(=O)O)CC2)cc1C(=O)N[C@@H]1[C@H]2CC[C@H](C2)[C@@H]1C(=O)NCC1CCC(C#N)CC1 (stereo partly drawn) [Example 107] | – | – | –
850 (≈ 457 µg/mL) | 220 | 11 | 18 | 12 | 114 | COc1cc(C#N)c(O[C@H]2CC[C@@](C)(C(=O)O)CC2)cc1C(=O)N[C@@H]1[C@H]2CC[C@H](C2)[C@@H]1C(=O)N[C@H]1C[C@@H](C)C1 [Example 73] | – | – | –
820 (≈ 451 µg/mL) | 720 | 35 | 21 | 4.2 | 89 | COc1cc(C#N)c(O[C@H]2C[C@@]3(C2)C[C@H](C(=O)O)C3)cc1C(=O)N[C@@H]1[C@H]2CC[C@H](C2)[C@@H]1C(=O)NCC1(C)CCC1 (single isomer, unassigned) [Example 6, (2R*,4r,6R)-6-(2-Cyano-4-methoxy-5-(((1S,2R,3S,4R)-3-(((1-methylcyclobutyl)methyl)carbamoyl)bicyclo[2.2.1]heptan-2-yl)carbamoyl)phenoxy)spiro[3.3]heptane-2-carboxylic acid] | – | – | –
170 (≈ 99.4 µg/mL) | 58 | 8.5 | 55 | 0.50 | 112 | COc1cc(F)c(O[C@H]2CC[C@@](C)(C(=O)O)CC2)cc1C(=O)N[C@@H]1CC[C@@H]1C(=O)Nc1ccc(F)c(C(F)(F)F)c1 [Example 51, (1S,4s)-4-(2-Fluoro-5-(((1R,2S)-2-((4-fluoro-3-(trifluoromethyl)phenyl)carbamoyl)cyclobutyl)carbamoyl)-4-methoxyphenoxy)-1-methylcyclohexane-1-carboxylic acid] | – | – | –
